The results in this text go back to patent publication US20050250853A1, “Beta-tubulin inhibitors” (priority 1999, published 2005).

Entries after “also recorded” stand apart in the source; their conditions may differ. Where two headings read alike, the source gives them in different places. Marks after values point to notes of the source that are not given here.

Series [1] concerns MDA-MB-231 cells. Nature of the series: cells. Format: cell-based, human. Here is the method:
(§1) Human breast carcinoma cell line, MDA-MB-231, was obtained from the American Type Culture Collection (ATCC HTB-26; Bethesda, Md.). MDA-MB-231 cells were grown in RPMI 1640 medium supplemented with 10% bovine calf serum (Hyclone, Road Logan, Utah). Wild-type Chinese Hamster Ovary cells (CHO-10001) (7), colchicine- and vinblastine-resistant (CHO-VV 3-2) (8) and taxol-resistant (CHO-TAX 5-6) cells (9) were generously provided by Dr. Fernando Cabral (University of Texas Medical School, Houston, Tex.). These cells were cultured in RPMI 1640 containing 10% fetal bovine serum. SK—N—SH human neuroblastoma cells, (ATCC HTB-11; Bethesda, Md.) were cultured in MEM medium supplemented with 2 mM L-glutamine, 1.5 g/liter sodium bicarbonate, 0.1 mM non-essential amino acids, 1 mM sodium pyruvate and 10% fetal bovine serum. Cells were cultured in a humidified atmosphere at 37° C. in 5% CO2.
(§2) Cytotoxicity was assessed using the MTT assay (3-(4,5-dimethylthiazol-2-yl)-2,5-diphenyltetrazolium bromide) as described by Carmichael et al. (12).

Series [2] is described as follows: Kinetics of alkylation of 4-(4-nitrobenzyl)pyridine (colorimetric assay). Format: physicochemical. Particulars: 80° C., pH 4.3, absorbance at 570 nm, linear regression, mean ± SD. The procedure: The rate constant of alkylation (K′) of CEU derivatives and chlorambucil was evaluated by a […] assay as described by Bardos et al (13). Briefly, 1 ml of a 10% (v/v) solution of 4-(4-nitrobenzyl)pyridine in ethanol and 1 ml of 50 mM sodium acetate (pH 4.3) were added to an ethanol solution (95%) containing 400 nmol per ml of either chlorambucil or CEU and heated to 80° C. in a shaking water bath for 60, 90, 120 or 150 min. The reaction was stopped by cooling the mixtures on ice for 5 min. Then, 1.5 ml of 0.1 M KOH: ethanol (1:2, v/v) were added to the reaction mixture. Samples were vortexed for 12 sec and set aside for 2.5 min prior to reading the absorbance at 570 nm. The values were compared with those obtained using a blank sample containing all reagents except the alkylating agent.

The test system of series [3] is CHO 10001 cells (wild-type). The series can be described thus: MTT cytotoxicity on wild-type CHO cells. Format: cell-based, Chinese hamster. The note with it: Cricetulus griseus, read-out: IC50 CHO 10001. Here is the method: as §1, with “Wild-type Chinese Hamster Ovary cells (CHO-10001) (7), colchicine- and vinblastine-resistant (CHO-VV 3-2) (8) and taxol-resistant (CHO-TAX 5-6) cells (9) were generously provided by Dr. Fernando Cabral (University of Texas Medical School, Houston, Tex.).” left out
as §2
(§3) The cytotoxicity of 4-tBCEU, 4-iPCEU and 4-sBCEU in two CHO cell lines having differential sensitivity to antmicrotubule agents was evaluated. These cell lines are derived from parental CHO-10001 cells and express mutated tubulins.

Series [4] concerns CHO TAX 5-6 cells. Nature of the series: MTT cytotoxicity on taxol-resistant CHO cells expressing mutated tubulin. Format: cell-based, Chinese hamster. The note with it: Cricetulus griseus, read-out: IC50 CHO TAX 5-6. The procedure:
as §1, with “Wild-type Chinese Hamster Ovary cells (CHO-10001) (7), colchicine- and vinblastine-resistant (CHO-VV 3-2) (8) and taxol-resistant (CHO-TAX 5-6) cells (9) were generously provided by Dr. Fernando Cabral (University of Texas Medical School, Houston, Tex.).” left out
as §2, §3

Series [5] deals with CHO VV 3-2 cells. Nature of the series: MTT cytotoxicity on vinblastine- and colchicine-resistant CHO cells expressing mutated tubulin. Format: cell-based, Chinese hamster. The note with it: Cricetulus griseus, read-out: IC50 CHO VV 3-2. Here is the method:
as §1, with “Wild-type Chinese Hamster Ovary cells (CHO-10001) (7), colchicine- and vinblastine-resistant (CHO-VV 3-2) (8) and taxol-resistant (CHO-TAX 5-6) cells (9) were generously provided by Dr. Fernando Cabral (University of Texas Medical School, Houston, Tex.).” left out
as §2, §3

Series [6] deals with MDA-MB-231 cells. Nature of the series: Cell cycle analysis by propidium iodide flow cytometry. The note with it: for speed of induction of cell cycle arrest in G2+M compared with 4-tBCEU: 30 μM, 24 or 48 h; for accumulation of cells in G2+M: CEU derivatives at 30 μM, 24 h, flow cytometry. Format: cell-based, human. Here is the method:
FIG. 1. Effect of CEU derivatives on cell cycle. Exponentially growing MDA-MB-231 cells were incubated in the absence or presence of 30 μM of either 4-tBCEU, 4-iPCEU or 4-sBCEU for 24 and 48 h, respectively, at 37° C. The cell cycle was evaluated using propidium iodide staining and flow cytometric analysis. Data are representative of three independent experiments.
Following incubation of MDA-MB-231 cells with 4-tBCEU, 4-iPCEU or 4-sBCEU, the cells were harvested, resuspended in 1 ml PBS and fixed by the addition of 2.4 ml of ice cold anhydrous ethanol. Then, 5×10^5 cells from each sample were centrifuged for 3 min at 1000×g. Cell pellets were resuspended in PBS containing 50 μg/ml of PI and 40 U/ml of ribonuclease A (Boehringer Mannheim, Laval, Calif.). Mixtures were incubated at room temperature for 30 min and cell cycle distribution was analyzed using an Epics Elite ESP flow cytometer (Coulter Corporation, Miami, Fla., USA).
The effect of CEU, namely 4-tBCEU, 4-PCEU and 4-sBCEU, on the cell cycle was analyzed. To this end, exponentially growing MDA-MB-231 cells were treated with 30 μM 4-tBCEU, 4-iPCEU or 4-sBCEU for 24 or 48 h followed by an evaluation of cell cycle distribution by flow cytometry using propidium iodide, a fluorescent DNA dye. […] Induction of mitosis blockage in prophase by CEU derivatives was confirmed by mitotic index analysis as described by Drouin (22).
Background: In flow cytometry, cells or beads pass a laser one at a time.

The test system of series [7] is β-tubulin. Nature of the series: Separation of soluble and polymerized tubulins, Western blot of β-tubulin. Format: cell-based, human. The note with it: MDA-MB-231 cells, 30 μM, 24 h and 48 h; for formation of modified β-tubulin (second immunoreactive band of lower Mr): free tubulin fraction. The procedure: FIG. 2. Effects of CEU derivatives on microtubule depolymerization. Exponentially growing MDA-MB-231 cells were incubated in the absence or the presence of 30 μM of CEU derivatives including (A) 4-tBCEU, 4-iPCEU or 4-sBCEU for 24 and 48 h respectively; (B) 2-ECEU, 3-ECEU or 4-ECEU for 24 and 48 h; and (C) 4-tBEU, 4-iPEU, 4-sBEU, 4-tBCPU, CEU or 4-methoxyCEU for 48 h. Free tubulin and microtubule fractions were isolated and analyzed by Western blot. Data are representative of three different experiments.
Separation of soluble and polymerized tubulins from MDA-MB231 cells was carried out as described by Minotti et al. (14) with minor modifications. Briefly, after drug exposure, about 5×10^6 cells in 100-mm petri dishes were washed with PBS at 37° C. and harvested in 3 ml of PBS containing 0.4 μg/ml of taxol using a rubber policeman.
Cells were centrifuged and lysed using 250 μl of microtubule-stabilizing buffer (20 mM Tris-HCl, pH 6.8, 140 mM NaCl, 1 mM MgCl2, 2 mM EDTA, 0.5% Nonidet P-40 and 0.4 μg/ml taxol), and then transferred to 1.5 ml microcentrifuge tubes. Samples were centrifuged at 12,000×g for 10 min at 4° C. and the supernatants containing soluble tubulin were placed in separate microcentrifuge tubes containing 250 μl of 2× Laemmli sample buffer (15). Pellets containing the polymerized tubulin were resuspended in 250 μl of water, followed by two freeze/thawing cycles, and the addition of 250 μl of 2× Laemmli sample buffer. Samples were analyzed by SDS-PAGE and immunoassay was performed as described below.
(§4) Samples (1×10^5 cells) were analyzed by 10% SDS-PAGE using the Laemmli system (15). Membranes were then incubated with PBSMT (PBS, pH 7.4, 5% fat-free dry milk and 0.1% Tween-20) for 1 h at room temperature, and then with 1:500 monoclonal anti-β-tubulin (clone TUB 2.1, Sigma) or 1:400 anti (clone no. SDL.3D10, Sigma) for 1 h. […] Membranes were washed with PBSMT and incubated with 1:2500 peroxidase-conjugated anti-mouse immunoglobulin (Amersham Canada, Oakville, Canada) in PBSMT for 30 min. Detection of the immunoblot was carried out with the ECL Western blotting detection reagent kit (Amersham Canada, Oakville, Canada).
For orientation: Immunoblotting shows a protein as a band on a membrane.

Series [8] deals with β-tubulin. Nature of the series: Competition with antimicrotubule agents for the site of β-tubulin alkylation. Format: cell-based, human. Particulars: MDA-MB-231 cells, 48 h, 30 μM CEU with 5 μM taxol, colchicine or vinblastine or 100 μM iodoacetamide. Here is the method:
FIG. 6. Identification of the site of alkylation of β-tubulin by CEU: competition with antimicrotubule agents. […] Data are representative of three different experiments.
as §4
The latter agents were used because they have well defined binding sites on β-tubulin (24-28) and because they were expected to inhibit alkylation by CEU if they shared a common binding site. […] These putative alkylation sites are two nucleophilic mercapto groups of cysteine residues at positions 239 and 354, respectively (25). To assess the possible alkylation of these mercapto residues by CEU, MDA-MB-231 cells were treated with 4-tBCEU in the presence of iodoacetamide, a specific thiol alkylating agent (31, 32). […] Similar experiments were carried out using EBI, a bifunctional alkylating agent that specifically induces cross-linking between Cys239 and Cys354 of β-tubulin (32).

[9] abbreviates: Homo sapiens, MDA-MB-231, concentration inhibiting 50% of cell growth, MTT assay, mean ± SD, read-out: IC50 (μM) MDA-MB-231.
Where [10] appears, read: concentration inhibiting 50% of cell growth, MTT assay, mean ± SD, read-out: IC50 (μM) MDA-MB-231.
Setting [11] is: CHO10001, wild-type CHO cells, 120 h, MTT, mean ± SD.
Where [12] appears, read: CHO-TAX 5-6, taxol-resistant CHO cells, 120 h, MTT, mean ± SD.
[13] abbreviates: CHO-VV 3-2, vinblastine- and colchicine-resistant CHO cells, 120 h, MTT, mean ± SD.

In general, IC50 refers to the concentration that inhibits the measured activity by half. As for `CCC(C)c1ccc(NC(=O)NCCCl)cc1` (centres unmarked) [Example 4-sBCEU, 4-sec-butyl[3-(2-chloroethyl)ureido]benzene], in series [1], the “cytotoxicity in words (active / inactive CEU)” value was “active”. Moreover, the IC50 worked out at 2 µM in series [1] (setting [9]); 2.3 ± 0.1 µM in series [1] (setting [10]); 5000 ± 200 nM in series [3] (CHO10001, 120 h); 2100 ± 100 nM in series [4] (CHO-TAX 5-6, 120 h); 8200 ± 400 nM in series [5] (CHO-VV 3-2, 120 h). In addition, the “K′ (constant of alkylation of 4-(4-nitrobenzyl)pyridine)” value in series [2] is on record as 3.1 ± 0.3^a. Besides, in series [6], the “speed of induction of cell cycle arrest in G2+M compared with 4-tBCEU” value is recorded as “more rapidly”. For the same compound, the “accumulation of cells in G2+M” value in series [6] is reported as “significant accumulation of cells in the G2+M”. Moreover, in series [7], the microtubule depolymerization entry is “complete microtubule depolymerization”. For the same compound, the “formation of modified β-tubulin (second immunoreactive band of lower Mr)” value in series [7] was “second immunoreactive band; also recorded: slighly faster than for 4-tBCEU”.

`O=C(O)CCCc1ccc(N(CCCl)CCCl)cc1` [CBL, Chlorambucil, reference compound]: the IC50 in series [1] (Homo sapiens, MDA-MB-231, read-out: IC50 (μM) MDA-MB-231) was determined as 9.3 ± 3.5 µM. Besides, the “K′ (constant of alkylation of 4-(4-nitrobenzyl)pyridine)” value in series [2] is given as 38.9 ± 5.1^a.

Regarding `CC(=O)O[C@H]1C(=O)[C@@]2(C)[C@H]([C@H](OC(=O)c3ccccc3)[C@]3(O)C[C@H](OC(=O)[C@H](O)[C@@H](NC(=O)c4ccccc4)c4ccccc4)C(C)=C1C3(C)C)[C@]1(OC(C)=O)CO[C@@H]1C[C@@H]2O` [Taxol, reference compound], the IC50 in series [3] (setting [11]) amounted to 1700 ± 300 nM; in series [4] (setting [12]), 6100 nM; in series [5] (setting [13]), 1100 ± 200 nM. Moreover, the “formation of modified β-tubulin (second immunoreactive band of lower Mr)” value in series [7] is on record as “no such band”. The “effect of competitor on formation of modified β-tubulin induced by CEU” value in series [8] was “abrogated the formation of modified β-tubulin”.

Consider `CC[C@]1(O)C[C@@H]2CN(CCc3c([nH]c4ccccc34)[C@@](C(=O)OC)(c3cc4c(cc3OC)N(C)[C@H]3[C@@](O)(C(=O)OC)[C@H](OC(C)=O)[C@]5(CC)C=CCN6CC[C@]43[C@@H]65)C2)C1` [Vinblastine, reference compound], for which the IC50 in series [3] (setting [11]) is 30 ± 3 nM; in series [4] (setting [12]), 21 ± 3 nM; in series [5] (setting [13]) it was 94 ± 3 nM. Besides, the “accumulation of cells in G2+M” value in series [6] is given as “G2+M block”. Moreover, in series [7], the “formation of modified β-tubulin (second immunoreactive band of lower Mr)” value is “no such band”. Further, the “effect of competitor on formation of modified β-tubulin induced by CEU” value in series [8] was “but not vinblastine, prevented formation of the additional β-tubulin band; also recorded: but not vinblastine, prevented the formation of modified β-tubulin”.

On to `CC(C)c1ccc(NC(=O)NCCCl)cc1` [Example 4-iPCEU, 4-iso-propyl[3-(2-chloroethyl)ureido]benzene], for which the “cytotoxicity in words (active / inactive CEU)” value in series [1] is recorded as “active”. Moreover, the IC50 was determined as 2 µM in series [1] (setting [9]); 2.2 ± 0.3 µM in series [1] (setting [10]); 4400 ± 200 nM in series [3] (CHO10001, 120 h); 2000 ± 100 nM in series [4] (CHO-TAX 5-6, 120 h); 7700 ± 400 nM in series [5] (CHO-VV 3-2, 120 h). For the same compound, the “K′ (constant of alkylation of 4-(4-nitrobenzyl)pyridine)” value in series [2] is listed as 3.0 ± 0.1^a. Besides, in series [6], the “speed of induction of cell cycle arrest in G2+M compared with 4-tBCEU” value is given as “more rapidly”. In addition, the “accumulation of cells in G2+M” value in series [6] is “significant accumulation of cells in the G2+M”. The microtubule depolymerization entry in series [7] is reported as “complete microtubule depolymerization”. Moreover, the “formation of modified β-tubulin (second immunoreactive band of lower Mr)” value in series [7] was “second immunoreactive band; also recorded: slighly faster than for 4-tBCEU”.
